Assay results taken from patent publication US20240115629A1, “ORAL COMPOSITION” (BLIS TECHNOLOGIES LIMITED, priority 2021, published 2024).

Tested on: BLIS M18 and K12
Assay: Comparison of foaming agents: inhibition on agar plates
Type: cell-based, Streptococcus salivarius
Conditions: 10 μL spotted on CABK12 and BaCa agar plates, 37° C. 5% CO2, 24 hrs
Protocol: Samples were prepared by • 1. mixing 1.1 g of BLIS M18 with 9.9 g of phosphate buffered saline (PBS) for 5 min and diluting by 1 in 10 with PBS • 2. adding to CABK12 and BaCa agar plates • 3. spotting 10 μL of foaming agent to plates and incubating at 37° C. 5% CO2 for 24 hrs, • 4. determining inhibition

Compound | Inhibitory to BLIS M18 and K12
CCCCCCCCO[C@@H]1O[C@H](CO)[C@@H](O)[C@H](O)[C@H]1O [Caprylyl glucoside] | Yes
CCCCCCCCCCO[C@@H]1O[C@H](CO)[C@@H](O)[C@H](O)[C@H]1O [Decyl Glucoside] | Yes
CCCCCCCC/C=C\CCCCCCCC(=O)OCCOCC(OCCO)C1OCC(OCCO)C1OCCO (stereo not shown) [Polysorbate 80] | No
CCCCCCCCCCCCOS(=O)(=O)[O-].[Na+] [Sodium Lauryl Sulphate] | Yes
Coco Glucoside | Yes
Lauryl glucoside | Yes
Sodium Cocyl Isethionate | Yes
